What all share (experiment): solution-based ALEX single-molecule FRET titration
The target in experiment [1] is T1, OpuAC (substrate-binding domain of OpuA) (Lactococcus lactis, UniProt Q7DAU8, K521C/T504C).
T1 construct: gene busAB
T1 sequence (Q7DAU8 320-573 T504C/K521C): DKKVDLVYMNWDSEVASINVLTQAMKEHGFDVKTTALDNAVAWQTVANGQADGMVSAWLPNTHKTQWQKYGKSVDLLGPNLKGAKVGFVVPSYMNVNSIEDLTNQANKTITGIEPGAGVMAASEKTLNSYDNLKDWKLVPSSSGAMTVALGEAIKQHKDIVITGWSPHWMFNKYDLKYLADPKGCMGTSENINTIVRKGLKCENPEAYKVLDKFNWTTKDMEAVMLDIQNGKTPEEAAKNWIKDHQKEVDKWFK

Experiment [2] has as its target T2, OpuAC (substrate-binding domain of OpuA) (Lactococcus lactis, UniProt Q7DAU8, K566C/N414C).
T2 construct: gene busAB
T2 sequence (Q7DAU8 320-573 N414C/K566C): T1 sequence (Q7DAU8 320-573 T504C/K521C) with N95C, C185T, C202K, K247C

Experiment [3] addresses T3, OpuAC (substrate-binding domain of OpuA) (Lactococcus lactis, UniProt Q7DAU8, D320C/K453C).
T3 construct: gene busAB
T3 sequence (Q7DAU8 320-573 D320C/K453C): T1 sequence (Q7DAU8 320-573 T504C/K521C) with D1C, K134C, C185T, C202K

This is an account of results in article PMC7952708, “In silico method for selecting residue pairs for single-molecule microscopy and spectroscopy” (Scientific Reports, 2021).

Changes are numbered by the printed parent chain.

A word on the Kd: it is the constant that tells how readily two partners part at equilibrium. Read a low Kd as tighter binding.

As for `C[N+](C)(C)CC(=O)[O-]` [glycine betaine], the Kd in experiment [1] is 38 µM; in experiment [2], 1 to 4 µM; in experiment [3], 1 to 4 µM.
